Measurements taken from patent US20240189201A1, “HAIR SERUM AND SUPPLEMENT” (priority 2021, published 2024).

Assay: Comparison of hair serum compositions formulated with different crystalline CBDs (type A vs type B)
Conditions: hair serum according to Example 2, differing only in the crystalline CBD used
Procedure: Two hair serum compositions are prepared according to Example 2, the only difference being that the crystalline CBD used in the formulation is either of type A (needle-like crystals; FIG. 1) or type B (bunch/cluster-like; FIG. 2).
Type A crystalline CBD is sourced from Enecta, while type B CBD is sourced from Pharma Hemp.

C=C(C)[C@@H]1CCC(C)=C[C@H]1c1c(O)cc(CCCCC)cc1O [type A CBD, Cannabidiol]
Activity / potency of CBD in hair serum, type A versus type B: significantly more active than type B CBD
Activity / potency of CBD in hair serum, type A versus type B (listed as crystal structure A): significantly more potent than CBD with a different crystal structure
